Several values for one entry are separate records, joined by “and”; a condition that tells them apart may be missing. Identical values can stand only once. Like-named read-outs stand apart in the source and are kept apart here. Square brackets hold non-standard residues; d marks the D form. Peptide text beside a SMILES is read from it. * marks the point of attachment. NH(4-NH2-anthraquinon-1-yl) = Nc1ccc(N*)c2c1C(=O)c1ccccc1C2=O; Cha = N[C@@H](CC1CCCCC1)C(=O)O; Abu = CC[C@H](N)C(=O)O
Legend:
Type in all cases: cell-based, human
[1] = tested on: MCF7TDX (Tomudex resistant breast carcinoma cell line)
Description: (§1) IC50 values of various potential HCV ECTA compounds (5761-5768) were determined using CCD 18co (normal colon epithelial cells), Det551 (skin fibroblasts), MCF7TDX (Tomudex resistant breast carcinoma cell line), HepG2 and Hep3B (hepatocellular carcinoma cell lines). Compound 5759 mimics the “released toxin” and serves as a positive control. IC50=the concentration of HCV ECTA compound that inhibits cellular growth by 50%.
(§2) Normal human colon epithelial cells (CCD18co), skin fibroblasts (Det551) Hepatocellular carcinoma cell lines (Hep3B and HepG2), breast cancer cell line (MCF7) and fibrosarcoma cell line (HT1080) were all purchased from the American Type Culture Collection (ATCC; Rockville Md.). MCF7TDX, human breast carcinoma cells resistant to 2 μM Tomudex™ have been described (ref. 98). Cells were cultured at 37° C. in 95% humidified air/5% CO2 in RPMI 1640 culture medium containing 10% fetal calf serum (Life Technologies) and penicillin/streptomycin/fungizone. MCF7TDX cells were maintained continuously in 2 μM Tomudex™. Normal cells were passaged a maximum of 15 times to avoid senescence.
(§3) The cytotoxic activity of various candidate prototoxophores was assessed by determining the IC50 value (concentration that inhibits cellular growth by 50%) in cellular proliferation assays and compared with the results obtained using the 5759 toxophore. Exponentially growing cells were transferred at a density of 1000 to 5500 cells per well to a 96 well tissue culture plate and allowed to attach for 24 hr. HCV ECTA compounds were applied in duplicate half log serial dilutions. After an additional 72 hr incubation, surviving adherent cells were washed once with PBS and stained with 0.5% crystal violet in methanol. Sorenson's buffer (0.025 M sodium citrate, 0.025 M citric acid in 50% ethanol) was added to each well and absorbance at 540 nm was monitored (absorbance at 540 nm correlates with cell survival; see refs. 103 to 105). Semi-adherent or non-adherent cells were stained with CYQUANT stain according to the protocol provided with the cell proliferation assay kit (C-7026; Molecular Probes; Eugene Oreg.). Fluorescence (485 nm excitation, 535 nm emission) was monitored. IC50 values were derived from sigmoid curves fit according to the Hill inhibitory Emax model (ref. 106).
(§4) Det551 or MCF7TDX cells were treated with compounds 5759, 5761, 5763 and 5767 for 2, 6, 12, 24 and 72 hours. After the indicated times the compounds were removed, the cells were washed, incubated for a total of 72 hours and IC50 values were determined. IC50=the concentration of HCV ECTA compound that inhibits cellular growth by 50%.
(§5) Cells were treated with compounds 5759, 5762 or 5763 for 15 hours. After removal of the compounds, the cells were washed, incubated for a total of 72 hours and IC50 values were determined. IC50=the concentration of HCV ECTA compound that inhibits cellular growth by 50%.

[2] = tested on: Det551 (skin fibroblasts)
Description: as §1, §2, §3, §4, §5

[3] = tested on: Hep3B (hepatocellular carcinoma cell line)
Description: as §1, §2, §3, §5

[4] = tested on: CCD18co (normal colon epithelial cells)
Description: as §1, §2, §3, §5

[5] = tested on: HepG2 (hepatocellular carcinoma cell line)
Description: as §1, §2, §3, §5

[6] = MCF7/TDX, 2 h exposure, washed, total 72 hours, read-out: IC50 after various times of drug exposure
[7] = MCF7/TDX, 6 h exposure, washed, total 72 hours, read-out: IC50 after various times of drug exposure
[8] = MCF7/TDX, 12 h exposure, washed, total 72 hours, read-out: IC50 after various times of drug exposure
[9] = MCF7/TDX, 24 h exposure, washed, total 72 hours, read-out: IC50 after various times of drug exposure
[10] = MCF7/TDX, 72 h exposure, read-out: IC50 after various times of drug exposure
[11] = MCF7TDX, 15 hours exposure, washed, total 72 hours, read-out: IC50 after 15 hour of drug exposure
[12] = MCF7TDX, 72 hr incubation, read-out: IC50 (concentration that inhibits cellular growth by 50%)
[13] = Det551, 2 h exposure, washed, total 72 hours, read-out: IC50 after various times of drug exposure
[14] = Det551, 6 h exposure, washed, total 72 hours, read-out: IC50 after various times of drug exposure
[15] = Det551, 12 h exposure, washed, total 72 hours, read-out: IC50 after various times of drug exposure
[16] = Det551, 15 hours exposure, washed, total 72 hours, read-out: IC50 after 15 hour of drug exposure
[17] = Det551, 24 h exposure, washed, total 72 hours, read-out: IC50 after various times of drug exposure
[18] = Det551, 72 h exposure, read-out: IC50 after various times of drug exposure
[19] = Det551, 72 hr incubation, read-out: IC50 (concentration that inhibits cellular growth by 50%)
[20] = 15 hours exposure, washed, total 72 hours, read-out: IC50 after 15 hour of drug exposure
[21] = HepG2, 15 hours exposure, washed, total 72 hours, read-out: IC50 after 15 hour of drug exposure
[22] = 72 hr incubation, read-out: IC50 (concentration that inhibits cellular growth by 50%)
[23] = HepG2, 72 hr incubation, read-out: IC50 (concentration that inhibits cellular growth by 50%)

Row | SMILES | IC50 [1, 6] [µM] | IC50 [1, 7] [µM] | IC50 [1, 8] [µM] | IC50 [1, 9] [µM] | IC50 [1, 10] [µM] | IC50 [1, 11] [µM] | IC50 [1, 12] [µM] | IC50 [2, 13] [µM] | IC50 [2, 14] | IC50 [2, 15] | IC50 [2, 16] [µM] | IC50 [2, 17] [µM] | IC50 [2, 18] [µM] | IC50 [2, 19] | IC50 [3, 20] [µM] | IC50 [4, 20] [µM] | IC50 [5, 21] [µM] | IC50 [4, 22] | IC50 [5, 23] | IC50 [3, 22]
1 | CC(=O)N[C@@H](CC(=O)O)C(=O)N[C@@H](CCC(=O)O)C(=O)N[C@H](C(=O)N[C@H](C(=O)N1CCC[C@H]1C(=O)N[C@@H](CS)C(=O)N[C@@H](CO)C(=O)NCC(=O)NCC(=O)Nc1ccc(N)c2c1C(=O)c1ccccc1C2=O)[C@@H](C)O)C(C)C [Compound 5763, Acetyl-Asp-Glu-Val-Thr-Pro-Cys-Ser-Gly-Gly-toxin] (Ac-DEVTPCSGG-{NH(4-NH2-anthraquinon-1-yl)}) | > 150 | > 150 | 116 | 32 | 7 | 146 | 6 | > 150 | 120 µM | 84 µM | 131 | 48 | 17 | 17 µM | > 150 | 112 | > 150 | – | – | –
2 | CC(=O)N[C@@H](CC(=O)O)C(=O)N[C@@H](CCC(=O)O)C(=O)N[C@H](C(=O)N[C@H](C(=O)N1CCC[C@H]1C(=O)N[C@@H](CS)C(=O)N[C@@H](CO)C(=O)NCC(=O)NCC(=O)Nc1ccc(N)c2c1C(=O)c1ccccc1C2=O)C(C)C)C(C)C [Compound 5761, Acetyl-Asp-Glu-Val-Val-Pro-Cys-Ser-Gly-Gly-toxin] (Ac-DEVVPCSGG-{NH(4-NH2-anthraquinon-1-yl)}) | > 150 | > 150 | 89 | 28 | 5 | – | – | > 150 | > 150 µM and 126 µM | > 150 µM and 88 µM | – | – | – | – | – | – | – | 24.4 µM | 51.1 µM | –
3 | CC(=O)N[C@@H](CC(=O)O)C(=O)N[C@@H](CCC(=O)O)C(=O)N1CCC[C@H]1C(=O)N[C@@H](CC(C)C)C(=O)N[C@@H](C)C(=O)N[C@@H](CS)C(=O)N[C@@H](CO)C(=O)NCC(=O)NCC(=O)Nc1ccc(N)c2c1C(=O)c1ccccc1C2=O [Compound 5765, Acetyl-Asp-Glu-Pro-Leu-Ala-Cys-Ser-Gly-Gly-toxin] (Ac-DEPLACSGG-{NH(4-NH2-anthraquinon-1-yl)}) | – | – | – | – | – | – | – | – | – | – | – | – | – | 15 µM and 16 µM | – | – | – | 28 µM and 33 µM and 38 µM | 18 µM and 21 µM | 25 µM and 26 µM
4 | CC[C@H](NC(=O)[C@@H]1CCCN1C(=O)[C@@H](NC(=O)[C@@H](NC(=O)[C@H](CCC(=O)O)NC(=O)[C@H](CC(=O)O)NC(C)=O)C(C)C)[C@@H](C)O)C(=O)N[C@@H](CO)C(=O)NCC(=O)NCC(=O)Nc1ccc(N)c2c1C(=O)c1ccccc1C2=O [Compound 5768, Acetyl-Asp-Glu-Val-Tbr-Pro-ABA-Ser-Gly-Gly-toxin] (Ac-DEVTP[Abu]SGG-{NH(4-NH2-anthraquinon-1-yl)}) | – | – | – | – | – | – | 14 | – | – | – | – | – | – | – | – | – | – | 32 µM | 24 µM | –
5 | CC[C@H](NC(=O)[C@H](CC1CCCCC1)NC(=O)[C@H](CCC(=O)O)NC(=O)[C@H](Cc1ccccc1)NC(=O)[C@H](CCC(=O)O)NC(=O)[C@H](CC(=O)O)NC(C)=O)C(=O)N[C@@H](CO)C(=O)NCC(=O)NCC(=O)Nc1ccc(N)c2c1C(=O)c1ccccc1C2=O [Compound 5766, Acetyl-Asp-Glu-Phe-Glu-Cha-ABA-Ser-Gly-Gly-toxin] (Ac-DEFE[Cha][Abu]SGG-{NH(4-NH2-anthraquinon-1-yl)}) | – | – | – | – | – | – | 8.5 | – | – | – | – | – | – | 5.3 µM | – | – | – | 10.2 µM | 24.5 µM | –
6 | CC(=O)N[C@@H](CC(=O)O)C(=O)N[C@@H](CCC(=O)O)C(=O)N[C@@H](C)C(=O)N[C@H](C(=O)N[C@@H](CC(C)C)C(=O)N[C@@H](CS)C(=O)N[C@@H](CO)C(=O)NCC(=O)NCC(=O)Nc1ccc(N)c2c1C(=O)c1ccccc1C2=O)C(C)C [Compound 5762, Acetyl-Asp-Glu-Ala-Val-Leu-Cys-Ser-Gly-Gly-toxin] (Ac-DEAVLCSGG-{NH(4-NH2-anthraquinon-1-yl)}) | – | – | – | – | – | 132 | – | – | – | – | 46 | – | – | – | > 150 | 77 | > 150 | – | – | –
7 | CC[C@H](NC(=O)[C@H](CC(C)C)NC(=O)[C@@H](NC(=O)[C@H](C)NC(=O)[C@H](CCC(=O)O)NC(=O)[C@H](CC(=O)O)NC(C)=O)C(C)C)C(=O)N[C@@H](CO)C(=O)NCC(=O)NCC(=O)Nc1ccc(N)c2c1C(=O)c1ccccc1C2=O [Compound 5767, Acetyl-Asp-Glu-Ala-Val-Leu-ABA-Ser-Gly-Gly-toxin] (Ac-DEAVL[Abu]SGG-{NH(4-NH2-anthraquinon-1-yl)}) | – | – | – | – | – | – | 8 | > 150 | 13 µM | 11 µM | – | 11 | 8 | 5.1 µM and 8 µM | – | – | – | 13.2 µM | 13.8 µM | –

From patent US20030114385A1, “Viral enzyme activated prototoxophores and use of same to treat viral infections” (priority 2001, published 2003)
